ChEMBL document CHEMBL5726667, “Substituted pyrrolo[2,3-b]pyrazines and substituted pyrazolo[3,4-b]pyridines as ITK and JAK kinase inhibitors” (2017)

Columns and labels:
[1] = molecular target: T1, Tyrosine-protein kinase ITK/TSK (Homo sapiens, UniProt Q08881); assay: In Vitro Inhibition Assay: ITK and JAK3 Kinase assay procedures:Enzyme was incubated with substrate peptide in reaction buffer in the presence and absence of test compounds or Staurosporine. All additions were done on ice, followed by the addition of ATP mix. Wells were uniformly mixed using an Eppendorff plate shaker and incubated at 30° C. for 20 min, and stopped by the addition of 5 μL of 3% …
T1 sequence (Q08881 whole entry): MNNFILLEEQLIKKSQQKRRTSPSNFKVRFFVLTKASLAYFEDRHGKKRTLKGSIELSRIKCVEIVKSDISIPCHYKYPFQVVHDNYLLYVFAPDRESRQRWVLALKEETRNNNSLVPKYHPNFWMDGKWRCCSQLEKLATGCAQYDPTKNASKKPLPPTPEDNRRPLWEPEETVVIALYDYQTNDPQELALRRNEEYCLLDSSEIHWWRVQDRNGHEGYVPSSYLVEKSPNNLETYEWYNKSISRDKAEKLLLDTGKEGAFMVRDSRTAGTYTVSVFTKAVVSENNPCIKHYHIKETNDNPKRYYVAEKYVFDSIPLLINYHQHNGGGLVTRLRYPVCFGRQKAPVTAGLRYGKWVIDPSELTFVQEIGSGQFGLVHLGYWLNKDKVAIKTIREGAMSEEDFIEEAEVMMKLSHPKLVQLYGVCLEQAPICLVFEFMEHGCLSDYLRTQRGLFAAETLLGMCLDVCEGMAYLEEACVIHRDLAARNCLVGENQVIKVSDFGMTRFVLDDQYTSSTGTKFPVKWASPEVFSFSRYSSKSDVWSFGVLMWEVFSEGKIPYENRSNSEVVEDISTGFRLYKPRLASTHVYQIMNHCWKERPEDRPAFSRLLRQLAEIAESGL
Description: (§1) All additions were done on ice, followed by the addition of ATP mix. Wells were uniformly mixed using an Eppendorff plate shaker and incubated at 30° C. for 20 min, and stopped by the addition of 5 μL of 3% phosphoric acid. Volume was increased to 100 μL by adding 0.8% phosphoric acid which was then transferred to PC filter mats (Millipore), pre-equilibrated with 70% ethanol and water. Plates were washed thrice with 100 μL 0.8% phosphoric acid and dried for an hour at 60° C. 100 μL scintillation fluid was added into each well and reading taken in Perkin Elmer TOPCOUNT beta counter.

[2] = molecular target: T2, Tyrosine-protein kinase JAK3 (Homo sapiens, UniProt P52333); assay: as above
T2 sequence (P52333 whole entry): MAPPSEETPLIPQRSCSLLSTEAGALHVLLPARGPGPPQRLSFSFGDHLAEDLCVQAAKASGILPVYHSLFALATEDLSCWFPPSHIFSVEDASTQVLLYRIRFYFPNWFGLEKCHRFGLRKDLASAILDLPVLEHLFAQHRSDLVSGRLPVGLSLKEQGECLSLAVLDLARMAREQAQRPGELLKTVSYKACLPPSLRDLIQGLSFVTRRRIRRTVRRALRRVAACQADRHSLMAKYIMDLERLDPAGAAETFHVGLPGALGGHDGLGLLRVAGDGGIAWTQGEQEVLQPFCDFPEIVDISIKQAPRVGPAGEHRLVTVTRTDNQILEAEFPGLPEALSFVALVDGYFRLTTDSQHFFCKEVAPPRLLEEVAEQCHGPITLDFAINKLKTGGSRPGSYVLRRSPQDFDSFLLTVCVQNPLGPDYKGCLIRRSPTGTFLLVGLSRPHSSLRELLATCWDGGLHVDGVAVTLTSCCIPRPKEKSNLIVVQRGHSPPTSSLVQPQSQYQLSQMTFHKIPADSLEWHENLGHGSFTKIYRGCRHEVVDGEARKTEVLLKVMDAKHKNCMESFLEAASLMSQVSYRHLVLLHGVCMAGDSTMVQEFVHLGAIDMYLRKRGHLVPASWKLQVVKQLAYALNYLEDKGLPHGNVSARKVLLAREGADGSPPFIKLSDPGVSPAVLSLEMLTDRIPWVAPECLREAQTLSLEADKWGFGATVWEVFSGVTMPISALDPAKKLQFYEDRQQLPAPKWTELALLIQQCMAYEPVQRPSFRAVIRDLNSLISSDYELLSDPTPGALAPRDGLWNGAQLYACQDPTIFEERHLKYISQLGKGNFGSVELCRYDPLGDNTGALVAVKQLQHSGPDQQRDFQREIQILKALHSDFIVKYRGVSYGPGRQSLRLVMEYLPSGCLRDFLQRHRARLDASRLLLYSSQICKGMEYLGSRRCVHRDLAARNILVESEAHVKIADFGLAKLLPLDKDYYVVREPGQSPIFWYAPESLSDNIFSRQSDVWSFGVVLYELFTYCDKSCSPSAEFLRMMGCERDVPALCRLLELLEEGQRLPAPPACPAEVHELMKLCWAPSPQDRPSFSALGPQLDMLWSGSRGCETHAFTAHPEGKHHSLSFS
Description: as §1

| IC50 [1] [nM] | IC50 [2] [nM] | Structure (SMILES) |
| --- | --- | --- |
| > 100 | > 100 | C=CC(=O)Nc1cccc(-c2cnc3c(c2)CC(=O)N3)c1 |
| > 100 | > 100 | CC/C=C/C(=O)Nc1cccc(-c2cnc3[nH]nc(C)c3c2)c1 |
| > 1000 | > 1000 | C=CC(=O)Nc1cccc(-c2cnc3[nH]ccc3c2)c1 |
| > 1000 | > 1000 | Cc1c[nH]c2ncc(-c3cccc(NC(=O)/C=C/N(C)C)c3)cc12 |
| > 100 | > 100 | CC/C=C/C(=O)Nc1cc(-c2cnc3[nH]cc(C)c3c2)ccc1Cl |
| > 1000 | > 1000 | Cc1c[nH]c2ncc(-c3ccc(Cl)c(NC(=O)/C=C/N(C)C)c3)cc12 |
| > 100 | > 100 | C=CC(=O)Nc1cccc(-c2cnc3[nH]cc(-c4cc5ccc(Cl)cc5[nH]4)c3n2)c1 |
| > 1000 | > 1000 | CC/C=C/C(=O)Nc1cccc(-c2cnc3[nH]cc(C)c3c2)c1 |
| > 100 | > 100 | C=CC(=O)Nc1cccc(-c2cnc3[nH]cc(-c4cc(F)cc(F)c4OC)c3n2)c1 |
| > 1000 | > 1000 | Cc1c[nH]c2ncc(Nc3cccc(CC#N)c3)cc12 |
| > 1000 | > 1000 | C=CC(=O)Nc1cccc(-c2cnc3[nH]ccc3n2)c1 |
| < 100 | < 100 | COc1c(F)cc(F)cc1-c1c[nH]c2ncc(-c3cc(NC(=O)/C(C)=C/C(C)(C)C)ccc3F)cc12 |
